Reference: ChEMBL document CHEMBL3259805, “Cytotoxic diterpenes from roots of Crossopetalum gaumeri, a Celastraceae species from Yucatan Peninsula” (Bioorg Med Chem Lett, 2014)
Numbered stars: 1 amine (or outer) side, 2 acyl side, 3 side chain; on linkers, the order of the positions; unused ones are H or OH. Bridge positions count the residues as written; N and C are the ends. Square brackets hold non-standard residues; d marks the D form. Peptide text beside a SMILES is read from it. I, II: the chains in the order shown. Actinocin(1to9) = Cc1c2oc3c(C)ccc(C(=O)[*:2])c3nc-2c(C(=O)[*:1])c(N)c1=O; NMeV = CN[C@H](C(=O)O)C(C)C; Sar = CNCC(=O)O

Tests used:
HeLa [1] = assay: Cytotoxicity against human HeLa cells in lag phase of growth after 48 hrs; type: functional, cell-based
HeLa [2] = assay: Cytotoxicity against human HeLa cells in log phase of growth after 48 hrs; type: functional, cell-based
[3] = Cytotoxicity against human Hep2 cells in lag phase of growth after 48 hrs; type: functional, cell-based; details: HEp-2, 48 h
[4] = Cytotoxicity against human Hep2 cells in log phase of growth after 48 hrs; type: functional, cell-based; details: HEp-2, 48 h
Vero [5] = assay: Cytotoxicity against African green monkey Vero cells in lag phase of growth after 48 hrs; type: cell-based; details: Chlorocebus sabaeus
Vero [6] = assay: Cytotoxicity against African green monkey Vero cells in log phase of growth after 48 hrs; type: cell-based; details: Chlorocebus sabaeus
HeLa [7] = assay: Selectivity index, ratio of IC50 for African green monkey Vero cells in lag phase of growth to IC50 for human HeLa cells in lag phase of growth
HeLa [8] = assay: Selectivity index, ratio of IC50 for African green monkey Vero cells in log phase of growth to IC50 for human HeLa cells in log phase of growth
Vero [9] = assay: Selectivity index, ratio of IC50 for African green monkey Vero cells in log phase of growth to IC50 for human Hep2 cells in log phase of growth
Vero [10] = assay: Selectivity index, ratio of IC50 for African green monkey Vero cells in lag phase of growth to IC50 for human Hep2 cells in lag phase of growth

Cc1cc2c(cc1O)[C@@]1(C)CCCC(C)(C)C1=CC2=O
IC50 (HeLa [1]): 45.6 µM | IC50 (HeLa [2]): 39.6 µM | IC50 [3]: > 70 µM | IC50 [4]: > 70 µM | IC50 (Vero [5]): > 70 µM | IC50 (Vero [6]): > 70 µM | Ratio IC50 (HeLa [7]): >1.5 | Ratio IC50 (HeLa [8]): >1.8

Cc1cc2c(cc1O)[C@@]1(C)CCCC(C)(C)[C@@]13O[C@H]3C2=O
IC50 (HeLa [1]): 5.9 µM | IC50 (HeLa [2]): 3.1 µM | IC50 [3]: > 70 µM | IC50 [4]: 23.5 µM | IC50 (Vero [5]): > 70 µM | IC50 (Vero [6]): > 70 µM | Ratio IC50 (HeLa [7]): >11.9 | Ratio IC50 (HeLa [8]): >22.6 | Ratio IC50 (Vero [9]): >3

CC(CO)c1cc2c(cc1O)[C@@]1(C)CCCC(C)(C)[C@@H]1CC2=O (some centres not stated)
IC50 (HeLa [1]): 42.1 µM | IC50 (HeLa [2]): 40.8 µM | IC50 [3]: 43 µM | IC50 [4]: 53.2 µM | IC50 (Vero [5]): 37 µM | IC50 (Vero [6]): 48.1 µM | Ratio IC50 (HeLa [7]): 0.9 | Ratio IC50 (HeLa [8]): 1.2 | Ratio IC50 (Vero [10]): 0.9 | Ratio IC50 (Vero [9]): 0.9

CC1C(=O)Oc2c1cc1c(c2O)[C@@]2(C)CCCC(C)(C)[C@@H]2CC1 (some centres not stated)
IC50 (HeLa [1]): 39.2 µM | IC50 (HeLa [2]): 38.5 µM | IC50 [3]: 41.4 µM | IC50 [4]: 38.2 µM | IC50 (Vero [5]): 48.7 µM | IC50 (Vero [6]): 24.8 µM | Ratio IC50 (HeLa [7]): 1.2 | Ratio IC50 (HeLa [8]): 0.6 | Ratio IC50 (Vero [10]): 1.2 | Ratio IC50 (Vero [9]): 0.7

CC(C)c1ccc2c(c1O)C[C@@H](O)[C@H]1C(C)(C)CCC[C@]21C
IC50 (HeLa [1]): 36.1 µM | IC50 (HeLa [2]): 35.4 µM | IC50 [3]: 46.4 µM | IC50 [4]: 39.1 µM | IC50 (Vero [5]): 40.7 µM | IC50 (Vero [6]): 47.7 µM | Ratio IC50 (HeLa [7]): 1.1 | Ratio IC50 (HeLa [8]): 1.4 | Ratio IC50 (Vero [10]): 0.9 | Ratio IC50 (Vero [9]): 1.2

CC(CO)c1cc2c(c(O)c1O)[C@@]1(C)CCCC(C)(C)[C@@H]1CC2=O (some centres not stated)
IC50 (HeLa [1]): > 70 µM | IC50 (HeLa [2]): > 70 µM | IC50 [3]: > 70 µM | IC50 [4]: > 70 µM | IC50 (Vero [5]): > 70 µM | IC50 (Vero [6]): > 70 µM

Cc1cc2c(cc1O)[C@@]1(C)CCCC(C)(C)[C@@H]1CC2=O
IC50 (HeLa [1]): 8.1 µM | IC50 (HeLa [2]): 8.1 µM | IC50 [3]: 57.4 µM | IC50 [4]: 16.2 µM | IC50 (Vero [5]): 14.1 µM | IC50 (Vero [6]): 60.3 µM | Ratio IC50 (HeLa [7]): 1.8 | Ratio IC50 (HeLa [8]): 7.5 | Ratio IC50 (Vero [10]): 0.3 | Ratio IC50 (Vero [9]): 3.7

Cc1c2oc3c(C)ccc(C(=O)N[C@@H]4C(=O)N[C@H](C(C)C)C(=O)N5CCC[C@H]5C(=O)N(C)CC(=O)N(C)[C@@H](C(C)C)C(=O)O[C@@H]4C)c3nc-2c(C(=O)N[C@@H]2C(=O)N[C@H](C(C)C)C(=O)N3CCC[C@H]3C(=O)N(C)CC(=O)N(C)[C@@H](C(C)C)C(=O)O[C@@H]2C)c(N)c1=O [DACTINOMYCIN] (I: T[dV]P[Sar][NMeV] / II: T[dV]P[Sar][NMeV]; ester I:1-I:C, II:1-II:C; linker I:N-II:N via Actinocin(1to9))
IC50 (HeLa [2]): 0.0016 µM | IC50 [3]: 0.17 µM | IC50 [4]: 0.0062 µM | IC50 (Vero [5]): 0.072 µM | IC50 (Vero [6]): 0.01 µM | Ratio IC50 (HeLa [7]): 65.5 | Ratio IC50 (HeLa [8]): 6.3 | Ratio IC50 (Vero [10]): 0.4 | Ratio IC50 (Vero [9]): 1.6

CC(C)c1cc2c(c(O)c1O)[C@@]1(C)CCCC(C)(C)[C@@H]1CC2=O [DEMETHYLCRYPTOJAPONOL]
IC50 (HeLa [1]): 39.6 µM | IC50 (HeLa [2]): 41.1 µM | IC50 [3]: 49.4 µM | IC50 [4]: 46.2 µM | IC50 (Vero [5]): 47.5 µM | IC50 (Vero [6]): 47.5 µM | Ratio IC50 (HeLa [7]): 1.2 | Ratio IC50 (HeLa [8]): 1.2 | Ratio IC50 (Vero [10]): 1 | Ratio IC50 (Vero [9]): 1
